Like-named read-outs stand apart in the source and are kept apart here.
Key:
Rat 11β-HSD1 [1] = biological target: T1, Rat 11β-HSD1 (Rattus norvegicus, UniProt P16232); assay: 11β-HSD1 assay in intact rat Leydig cells; type: cell-based; conditions: for Rat 11β-HSD1 Potency to Curcumin (fold) / IC50: intact rat Leydig cells; for Rat 11β-HSD1 Potency to Curcumin (fold): relative to curcumin; for IC50: read-out: Rat 11β-HSD1 IC50 (nM) in Leydig cells
T1 construct: endogenous in cells; host or cells: primary adult Sprague-Dawley rat Leydig cells
Method: Rat Leydig cells contain the highest 11β-HSD1 activity in all cell types of rat tissues, and were used for rat 11β-HSD1 enzyme sources. Purified rat Leydig cells were obtained from 90-day-old Sprague-Dawley rats by collagenase digestion of the testes followed by Percoll density centrifugation of the cell suspension, according to the previously described method. […] The purity of cell fractions was evaluated by histochemical staining for 3β-hydroxysteroid dehydrogenase activity with […] etiocholanolone as the steroid substrate.
(§1) 11β-HSD1 reductase activity was performed in intact cells using endogenous cofactor NADPH as described previously. […] 25×10^3 cells were added to each tube to initiate the reaction and the reaction mixture was incubated for up to 2 hrs, during which the reaction is within the linear range. At the end of reaction, the reaction was stopped by adding 2 ml ice-cold ether. The steroids were extracted, and the organic layer was dried under nitrogen. The steroids were separated chromatographically on thin layer plates in chloroform and methanol (90∶10, v/v), and the radioactivity was measured using a scanning radiometer (System AR2000, Bioscan Inc., Washington, DC) as described previously. The percentage conversion of 11DHC to CORT or cortisone to cortisol was calculated by dividing the radioactive counts identified as 11-OH-steroids by the total counts.
(§2) The IC50 was determined by adding different concentrations of each compound in the 11β-HSD1 or 11β-HSD2 reaction as described. The mode of inhibition was assayed by adding various concentrations of steroid substrates in the presence of an inhibitor as described.

Human 11β-HSD1 [2] = biological target: T2, Human 11β-HSD1 (Homo sapiens, UniProt P28845); assay: 11β-HSD1 assay in intact CHOP cells transfected with human HSD11B1; type: cell-based; conditions: for Human 11β-HSD1 Potency to Curcumin (fold): CHOP cells transfected with human HSD11B1, relative to curcumin
T2 construct: expressed in transfected cells; host or cells: CHOP cells (transient, FuGENE)
Method: (§3) An expression plasmid was constructed to express human 11β-HSD1 (HSD11B1) cDNA in pcDNA I expression vector from its original human HSD11B1 vector (pBluescriptSK+).[15]. The Escherichia coli transformants carrying an insert were selected by colony hybridization, and a clone with the insert in the correct orientation relative to the vector T7 promoter was identified by restriction mapping. All transfections were carried out on 80% confluent cultures in 12-well plates. Aliquots of 1 µg HSD11B1 pcDNA I were transfected into mammalian CHOP cells with the FuGENE Transfection Reagent (Roche) according to manufacturer's protocol. Cells were allowed to grow for 24 hours in media containing 10% fetal bovine serum. Then media were removed and cells were harvested for 11β-HSD1 activity assay.
as §1, §2

Rat 11β-HSD2 = biological target: T3, Rat 11β-HSD2 (Rattus norvegicus, UniProt P50233); assay: 11β-HSD2 assay in rat kidney microsomes; type: biochemical; conditions: for IC50: rat kidney microsomes
T3 construct: from tissue; host or cells: rat kidney microsomes
T3 sequence (P50233 1-400): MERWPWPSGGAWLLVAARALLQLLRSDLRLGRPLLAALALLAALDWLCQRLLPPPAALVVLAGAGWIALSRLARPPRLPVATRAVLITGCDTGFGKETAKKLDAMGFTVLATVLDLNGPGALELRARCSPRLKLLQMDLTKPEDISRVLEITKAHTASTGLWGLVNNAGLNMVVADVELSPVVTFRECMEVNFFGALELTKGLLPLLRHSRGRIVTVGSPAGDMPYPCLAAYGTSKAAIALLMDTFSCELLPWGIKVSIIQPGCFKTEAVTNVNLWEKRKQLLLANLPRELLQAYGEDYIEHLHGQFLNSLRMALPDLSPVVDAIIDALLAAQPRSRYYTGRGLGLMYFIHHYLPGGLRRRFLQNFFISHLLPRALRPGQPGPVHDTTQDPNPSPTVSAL
Method: (§4) Rats were euthanized by CO2, and livers, testes and kidneys were collected. Rat liver, testis and kidney microsomes were prepared as described previously. In brief, rat liver and kidney were homogenized in […] PBS buffer containing 0.25 M sucrose, and nuclei and large cell debris were removed by centrifugation at 1500× g for 10 min. The post-nuclear supernatants were centrifuged twice at 105,000×g, the resultant microsomal pellets were resuspended. Protein contents were measured by Bio-Rad Dye Reagent Concentrate (Cat.#500-0006). Microsomes were used for measurement of 11β-HSD1 and 11β-HSD2 activities.
The rat and human kidney microsomes were used for 11β-HSD2 sources. 11β-HSD2 activity was performed in the microsome according to a previously described method. […] 8 (rat) or 20 (human) µg kidney microsomes were added to each tube to initiate the reaction and the reaction mixture was incubated for up to 3 hrs, during which the reaction is within the linear range. The rest procedure was similar to 11β-HSD1 assay. The percentage conversion of CORT to 11DHC or cortisol to cortisone was calculated by dividing the radioactive counts identified as 11keto-steroids by the total counts.
as §2

Human 11β-HSD2 = biological target: T4, Human 11β-HSD2 (Homo sapiens, UniProt P80365); assay: 11β-HSD2 assay in human kidney microsomes; type: biochemical; conditions: for IC50: human kidney microsomes, read-out: IC50 (nM) Human 11β-HSD2
T4 construct: tissue Gentest (Woburn, MA); host or cells: human kidney microsomes
T4 sequence (P80365 1-405): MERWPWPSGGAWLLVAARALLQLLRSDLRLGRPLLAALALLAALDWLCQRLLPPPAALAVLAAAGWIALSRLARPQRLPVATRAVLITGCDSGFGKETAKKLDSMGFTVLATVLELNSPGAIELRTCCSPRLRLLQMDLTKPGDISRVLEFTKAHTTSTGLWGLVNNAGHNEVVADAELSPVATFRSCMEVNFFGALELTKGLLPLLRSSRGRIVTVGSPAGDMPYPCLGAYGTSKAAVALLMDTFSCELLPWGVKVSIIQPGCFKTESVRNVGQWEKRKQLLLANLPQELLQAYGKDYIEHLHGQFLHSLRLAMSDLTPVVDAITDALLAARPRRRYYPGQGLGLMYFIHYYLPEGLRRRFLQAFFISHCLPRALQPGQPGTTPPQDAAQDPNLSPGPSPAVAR
Method: The rat and human kidney microsomes were used for 11β-HSD2 sources. 11β-HSD2 activity was performed in the microsome according to a previously described method. In brief, the assay tubes contained 25 nM substrate CORT (for rat) or cortisol (for human), spiked with 30,000 cpm their respective ^3H-11β-hydroxyl steroid, 0.2 mM NAD+ and 0.1 mM DTT in the PBS buffer. 8 (rat) or 20 (human) µg kidney microsomes were added to each tube to initiate the reaction and the reaction mixture was incubated for up to 3 hrs, during which the reaction is within the linear range. The rest procedure was similar to 11β-HSD1 assay. The percentage conversion of CORT to 11DHC or cortisol to cortisone was calculated by dividing the radioactive counts identified as 11keto-steroids by the total counts.
as §2

Human 11β-HSD1 [3] = biological target: T2, Human 11β-HSD1; assay: 11β-HSD1 assay in microsomes from CHOP cells transfected with human HSD11B1; type: biochemical; conditions: microsomes, screening
Method: as §3
(§5) The rat testis and liver or human liver microsomes were used for 11β-HSD1 assay. 11β-HSD1 activity was performed in the microsome according to a previously described method. […] 2 µg microsomes were added to each tube to initiate the reaction and the reaction mixture was incubated for up to 2 hrs, during which the reaction is within the linear range. The rest procedure was similar to 11β-HSD1 assay in intact cells.
as §2

Rat 11β-HSD1 [4] = biological target: T1, Rat 11β-HSD1; assay: 11β-HSD1 assay in adult rat testis microsomes; type: biochemical; conditions: microsomes, screening
Method: as §4, §5, §2

[5] = CHOP cells transfected with human HSD11B1, read-out: Human 11β-HSD1 IC50 (nM) in CHOP cells

T2 sequence (P28845 whole entry): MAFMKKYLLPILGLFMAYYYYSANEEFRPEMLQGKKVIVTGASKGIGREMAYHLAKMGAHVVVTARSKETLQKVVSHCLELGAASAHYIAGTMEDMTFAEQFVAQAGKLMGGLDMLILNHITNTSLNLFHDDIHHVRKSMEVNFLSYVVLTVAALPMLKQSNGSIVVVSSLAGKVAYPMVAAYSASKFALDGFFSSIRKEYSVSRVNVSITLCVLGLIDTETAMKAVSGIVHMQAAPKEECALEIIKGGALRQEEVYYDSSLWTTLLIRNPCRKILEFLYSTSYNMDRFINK
T1 sequence (P16232 whole entry): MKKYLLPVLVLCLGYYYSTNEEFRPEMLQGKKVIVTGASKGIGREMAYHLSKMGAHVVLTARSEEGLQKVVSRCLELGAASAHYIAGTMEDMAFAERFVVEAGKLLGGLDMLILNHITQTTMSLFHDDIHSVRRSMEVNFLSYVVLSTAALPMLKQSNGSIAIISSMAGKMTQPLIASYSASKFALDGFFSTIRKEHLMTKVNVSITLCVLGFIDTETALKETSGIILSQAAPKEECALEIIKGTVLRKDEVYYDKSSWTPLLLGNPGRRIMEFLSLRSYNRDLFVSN

| Structure (SMILES) | Rat 11β-HSD1 Potency to Curcumin (fold) (Rat 11β-HSD1 [1]) | IC50 (Rat 11β-HSD1 [1]) [nM] | Human 11β-HSD1 Potency to Curcumin (fold) (Human 11β-HSD1 [2]) | IC50 (Human 11β-HSD1 [2]; [5]) [nM] | IC50 (Rat 11β-HSD2) [nM] | IC50 (Human 11β-HSD2) [nM] | IC50 (Human 11β-HSD1 [2]; intact CHOP cells transfected with human HSD11B1, read-out: IC50 human 11β-HSD1 in intact cells) [nM] | Inhibition of rat 11β-HSD2 at 100 µM (Rat 11β-HSD2) | Inhibition of human 11β-HSD2 at 100 µM (Human 11β-HSD2) | Inhibition of rat 11β-HSD1 at 100 μM (Rat 11β-HSD1 [1]; 100 μM, intact cells) | Inhibition of human 11β-HSD1 at 100 μM (Human 11β-HSD1 [2]; 100 μM, intact cells) | Inhibitory effect against human 11β-HSD1 in nutraceutical screen (Human 11β-HSD1 [3]) | Inhibitory effect against rat 11β-HSD1 in nutraceutical screen (Rat 11β-HSD1 [4]) |
| --- | --- | --- | --- | --- | --- | --- | --- | --- | --- | --- | --- | --- | --- |
| O=C1/C(=C/c2ccc(Br)o2)CC/C1=C\c1ccc(Br)o1 [compound 7] | 1.85 | 3130 | 1.73 | 1330 | > 100000 | > 100000 |  |  |  |  |  |  |  |
| COc1ccc2cc3[n+](cc2c1OC)CCc1cc2c(cc1-3)OCO2 [berberine] |  |  |  |  |  |  |  |  |  |  |  | only curcumin (compound 1) showed inhibitory effects | only curcumin (compound 1) showed inhibitory effects |
| Cn1cccc1/C=C1\CCC/C(=C\c2cccn2C)C1=O [compound 15] | 0.49 | 11800 | 1.09 | 2100 | > 100000 | > 100000 |  |  |  |  |  |  |  |
| O=C1/C(=C/c2ccc(Br)o2)CCC/C1=C\c1ccc(Br)o1 [compound 12] | 0.54 | 10800 | 0.75 | 3050 | > 100000 | > 100000 |  |  |  |  |  |  |  |
| COc1ccc(-c2oc3c(CC=C(C)C)c(O[C@@H]4O[C@H](CO)[C@@H](O)[C@H](O)[C@H]4O)cc(O)c3c(=O)c2O[C@@H]2O[C@@H](C)[C@H](O)[C@@H](O)[C@H]2O)cc1 [icariin] |  |  |  |  |  |  |  |  |  |  |  | only curcumin (compound 1) showed inhibitory effects | only curcumin (compound 1) showed inhibitory effects |

The next lines start with results.

| Rat 11β-HSD1 Potency to Curcumin (fold) (Rat 11β-HSD1 [1]) | IC50 (Rat 11β-HSD1 [1]) [nM] | Human 11β-HSD1 Potency to Curcumin (fold) (Human 11β-HSD1 [2]) | IC50 (Human 11β-HSD1 [2]; [5]) [nM] | IC50 (Rat 11β-HSD2) [nM] | IC50 (Human 11β-HSD2) [nM] | IC50 (Human 11β-HSD1 [2]; intact CHOP cells transfected with human HSD11B1, read-out: IC50 human 11β-HSD1 in intact cells) [nM] | Inhibition of rat 11β-HSD2 at 100 µM (Rat 11β-HSD2) | Inhibition of human 11β-HSD2 at 100 µM (Human 11β-HSD2) | Inhibition of rat 11β-HSD1 at 100 μM (Rat 11β-HSD1 [1]; 100 μM, intact cells) | Inhibition of human 11β-HSD1 at 100 μM (Human 11β-HSD1 [2]; 100 μM, intact cells) | Structure (SMILES) | Inhibitory effect against human 11β-HSD1 in nutraceutical screen (Human 11β-HSD1 [3]) | Inhibitory effect against rat 11β-HSD1 in nutraceutical screen (Rat 11β-HSD1 [4]) |
| --- | --- | --- | --- | --- | --- | --- | --- | --- | --- | --- | --- | --- | --- |
| 50.75 | 114 | 12.54 | 183 | > 100000 | 19600 |  |  |  |  |  | Cc1ccsc1/C=C/C(=O)/C=C/c1sccc1C [compound 4, (1E,4E)-1,5-bis(3-methylthiophen-2-yl) penta-1,4-dien-3-one] |  |  |
| 1.38 | 4210 | 2.31 | 995 | > 100000 | > 100000 |  |  |  |  |  | O=C(/C=C/c1ccc(Br)o1)/C=C/c1ccc(Br)o1 [compound 2] |  |  |
| 2.27 | 2550 | 0.64 | 3570 | > 100000 | > 100000 | 3570 |  |  |  |  | O=C1/C(=C/c2cccs2)CCC/C1=C\c1cccs1 [compound 16, (1E,4E)-1,5-bis(thiophen-2-yl) cyclohexanone] |  |  |
| 2.17 | 2670 | 20.68 | 111 | > 100000 | > 100000 |  | did not inhibit | did not inhibit |  |  | Cc1ccc(/C=C2\CC/C(=C\c3ccc(C)s3)C2=O)s1 [compound 8] |  |  |
| 5.51 | 1050 | 10.20 | 225 | > 100000 | > 100000 |  | did not inhibit | did not inhibit |  |  | O=C1/C(=C/c2cccs2)CC/C1=C\c1cccs1 [compound 11] |  |  |
|  | > 100000 |  | > 100000 | > 100000 | > 100000 |  |  |  |  |  | Cn1cccc1/C=C1\CC/C(=C\c2cccn2C)C1=O [compound 10] |  |  |
| 0.48 | 11900 | 0.50 | 4590 | > 100000 | > 100000 |  |  |  |  |  | Cc1ccc(/C=C2\CCC/C(=C\c3ccc(C)s3)C2=O)s1 [compound 13] |  |  |
|  | > 100000 |  | > 100000 | > 100000 | > 100000 |  |  |  | did not inhibit | did not inhibit | Cc1ccsc1/C=C1\CC/C(=C\c2sccc2C)C1=O [compound 9, (1E,4E)-1,5-bis(3-methylthiophen-2-yl) cyclopentanone] |  |  |

— PMC3606385 (PLoS ONE, 2013)
